According to ChEMBL document CHEMBL1139686, “Structure-based design, synthesis, and SAR evaluation of a new series of 8-hydroxyquinolines as HIF-1alpha prolyl hydroxylase inhibitors” (Bioorg Med Chem Lett, 2006):
pEC50, pIC50: −log10 of the molar value.

The compounds below were run on HEK293 (assay: Induction of VEGF in HEK293 cells by ELISA). Details: Homo sapiens.

| Structure (SMILES) | pEC50 |
| --- | --- |
| O=C(NCc1ccccc1)c1ccc2cccnc2c1O | 6.05 |
| O=C(Nc1ccccc1)c1ccc2cccnc2c1O | 6.20 |
| O=C(Nc1cccnc1)c1ccc2cccnc2c1O | 5.72 |
| COC(=O)c1ccc(NC(=O)c2ccc3cccnc3c2O)cc1 | < 4.00 |
| N#Cc1cccc(NC(=O)c2ccc3cccnc3c2O)c1 | 6.38 |
| Cc1cc(F)cc(NC(=O)c2ccc3cccnc3c2O)c1 | 6.05 |
| COc1ccc(CNC(=O)c2ccc3cccnc3c2O)cc1 | 6.21 |
| O=C(NCc1ccc(Cl)cc1)c1ccc2cccnc2c1O | 5.51 |
| O=C(Nc1ccc(C(F)(F)F)cc1)c1ccc2cccnc2c1O | < 4.00 |
| N#Cc1ccc(NC(=O)c2ccc3cccnc3c2O)cc1 | 6.85 |
| O=C(NCCc1ccccc1)c1ccc2cccnc2c1O | 6.24 |
| COc1cc(NC(=O)c2ccc3cccnc3c2O)cc(OC)c1 | 5.49 |
| N#CCNC(=O)c1ccc2cccnc2c1O | 5.39 |
| O=C(O)CNC(=O)c1ccc2cccnc2c1O | < 4.00 |

These compounds were tested against Egl nine homolog 1 (Homo sapiens, UniProt Q9GZT9) (assay: Inhibition of human EGLN1). Details: not given.
Egl nine homolog 1, sequence (Q9GZT9 whole entry): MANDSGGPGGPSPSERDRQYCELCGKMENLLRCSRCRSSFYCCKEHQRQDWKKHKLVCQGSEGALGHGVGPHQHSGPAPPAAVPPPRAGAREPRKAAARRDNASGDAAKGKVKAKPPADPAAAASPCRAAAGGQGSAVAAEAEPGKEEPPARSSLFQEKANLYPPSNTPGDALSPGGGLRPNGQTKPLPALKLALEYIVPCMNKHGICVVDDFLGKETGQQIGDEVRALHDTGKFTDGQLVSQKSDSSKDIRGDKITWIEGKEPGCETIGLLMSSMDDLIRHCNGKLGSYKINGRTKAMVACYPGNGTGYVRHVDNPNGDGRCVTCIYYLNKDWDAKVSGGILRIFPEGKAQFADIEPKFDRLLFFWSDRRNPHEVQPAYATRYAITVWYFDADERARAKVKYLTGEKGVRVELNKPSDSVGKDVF

| Structure (SMILES) | pIC50 |
| --- | --- |
| O=C(O)c1ccc2cccnc2c1O | < 4.00 |
